Experimental data reported in ChEMBL document CHEMBL2029274, “Structure and property based design, synthesis and biological evaluation of γ-lactam based HDAC inhibitors: part II” (Bioorg Med Chem Lett, 2012).

Assays:
MDA-MB-231 = experiment: Antiproliferative activity against human MDA-MB-231 cells; format: functional
[1] = Inhibition of HDAC by fluorescence assay
PC-3 = experiment: Antiproliferative activity against human PC3 cells; format: functional
NCI-H23 = experiment: Antiproliferative activity against human NCI-H23 cells; format: functional
HCT-15 = experiment: Antiproliferative activity against human HCT15 cells; format: functional
ACHN = experiment: Antiproliferative activity against human ACHN cells; format: functional
[2] = Metabolic stability in mouse liver microsomes assessed as compound remaining at 1 uM after 30 mins in the absence of NADPH; format: ADME, Microsome; conditions: read-out: Stability
[3] = Chemical stability in buffer assessed as compound remaining at 1 uM after 30 mins; format: physicochemical; conditions: read-out: Stability
[4] = Metabolic stability in mouse liver microsomes assessed as compound remaining at 1 uM after 30 mins in the presence of NADPH; format: ADME, Microsome; conditions: read-out: Stability
NUGC-3 = experiment: Antiproliferative activity against human NUGC3 cells; format: functional

Structure (SMILES): O=C(CCC1=CCN(Cc2ccccc2)C1=O)NO
- GI50 (MDA-MB-231): 990 nM
- IC50 [1]: 120 nM
- GI50 (PC-3): 4.43 µM
- GI50 (NCI-H23): 4290 nM
- GI50 (HCT-15): 5.37 µM
- GI50 (ACHN): 1080 nM

Structure (SMILES): O=C(CCC1=CCN(CCc2ccccc2)C1=O)NO
- GI50 (MDA-MB-231): 990 nM
- IC50 [1]: 120 nM
- remaining at 0.5 h, 1 µM [2]: 85.5%
- remaining at 0.5 h, 1 µM [3]: 96.7%
- remaining at 0.5 h, 1 µM [4]: 82.9%

Structure (SMILES): COc1ccc(CCCN2CC=C(CCC(=O)NO)C2=O)cc1
- GI50 (MDA-MB-231): 2560 nM
- IC50 [1]: 270 nM
- GI50 (PC-3): 7 µM
- GI50 (NCI-H23): 2510 nM
- GI50 (HCT-15): > 10 µM
- GI50 (ACHN): 4750 nM
- GI50 (NUGC-3): 5480 nM

Structure (SMILES): COc1cccc(CCCN2CC=C(CCC(=O)NO)C2=O)c1
- GI50 (MDA-MB-231): 1880 nM
- IC50 [1]: 160 nM
- GI50 (PC-3): 2.59 µM
- GI50 (NCI-H23): 1170 nM
- GI50 (HCT-15): > 10 µM
- GI50 (ACHN): 2480 nM
- GI50 (NUGC-3): 3930 nM

Structure (SMILES): COc1ccccc1CCCN1CC=C(CCC(=O)NO)C1=O
- GI50 (MDA-MB-231): 1500 nM
- IC50 [1]: 130 nM
- GI50 (PC-3): 3.51 µM
- GI50 (NCI-H23): 4490 nM
- GI50 (HCT-15): > 10 µM
- GI50 (ACHN): 2530 nM
- GI50 (NUGC-3): 2020 nM

Structure (SMILES): O=C(CCC1=CCN(CCc2ccc(C(F)(F)F)cc2)C1=O)NO
- GI50 (MDA-MB-231): 1170 nM
- IC50 [1]: 70 nM
- GI50 (PC-3): 2.38 µM
- GI50 (NCI-H23): 1120 nM
- remaining at 0.5 h, 1 µM [2]: 73.9%
- GI50 (HCT-15): 2.2 µM
- GI50 (ACHN): 2480 nM
- remaining at 0.5 h, 1 µM [3]: 102%
- GI50 (NUGC-3): 1080 nM
- remaining at 0.5 h, 1 µM [4]: 75.9%

Structure (SMILES): O=C(CCC1=CCN(CCc2cccc(C(F)(F)F)c2)C1=O)NO
- GI50 (MDA-MB-231): 2170 nM
- IC50 [1]: 120 nM
- GI50 (PC-3): 2.77 µM
- GI50 (NCI-H23): 1110 nM
- GI50 (HCT-15): 6.01 µM
- GI50 (ACHN): 1170 nM
- GI50 (NUGC-3): 920 nM

Structure (SMILES): COc1ccc(CCN2CC=C(CCC(=O)NO)C2=O)cc1
- GI50 (MDA-MB-231): 1080 nM
- IC50 [1]: 190 nM
- GI50 (PC-3): 3.17 µM
- GI50 (NCI-H23): 4020 nM
- remaining at 0.5 h, 1 µM [2]: 92%
- GI50 (HCT-15): > 10 µM
- GI50 (ACHN): 2380 nM
- remaining at 0.5 h, 1 µM [3]: 102%
- GI50 (NUGC-3): 1420 nM
- remaining at 0.5 h, 1 µM [4]: 98.3%

Structure (SMILES): COc1cccc(CCN2CC=C(CCC(=O)NO)C2=O)c1
- GI50 (MDA-MB-231): 1880 nM
- IC50 [1]: 160 nM
- GI50 (PC-3): 2.59 µM
- GI50 (NCI-H23): 1170 nM
- GI50 (HCT-15): > 10 µM
- GI50 (ACHN): 2480 nM
- GI50 (NUGC-3): 3930 nM

Structure (SMILES): COc1ccccc1CCN1CC=C(CCC(=O)NO)C1=O
- GI50 (MDA-MB-231): 1500 nM
- IC50 [1]: 130 nM
- GI50 (PC-3): 3.51 µM
- GI50 (NCI-H23): 4490 nM
- GI50 (HCT-15): > 10 µM
- GI50 (ACHN): 2530 nM
- GI50 (NUGC-3): 2020 nM

Structure (SMILES): O=C(CCC1=CCN(Cc2ccc(C(F)(F)F)cc2)C1=O)NO
- GI50 (MDA-MB-231): 3070 nM
- IC50 [1]: 260 nM
- GI50 (PC-3): 4.36 µM
- GI50 (NCI-H23): 6640 nM
- GI50 (HCT-15): 4.54 µM
- GI50 (ACHN): 4290 nM
- GI50 (NUGC-3): 3230 nM

Structure (SMILES): O=C(CCC1=CCN(Cc2cccc(C(F)(F)F)c2)C1=O)NO
- GI50 (MDA-MB-231): 220 nM
- IC50 [1]: 120 nM
- GI50 (PC-3): 0.88 µM
- GI50 (NCI-H23): 680 nM
- GI50 (HCT-15): 0.54 µM
- GI50 (ACHN): 670 nM
- GI50 (NUGC-3): 160 nM

Structure (SMILES): COc1ccc(CN2CC=C(CCC(=O)NO)C2=O)cc1
- GI50 (MDA-MB-231): 1630 nM
- IC50 [1]: 450 nM
- GI50 (PC-3): 3.12 µM
- GI50 (NCI-H23): 1640 nM
- GI50 (HCT-15): 1.72 µM
- GI50 (ACHN): 2480 nM
- GI50 (NUGC-3): 1110 nM

Structure (SMILES): COc1cccc(CN2CC=C(CCC(=O)NO)C2=O)c1
- GI50 (MDA-MB-231): 1770 nM
- IC50 [1]: 380 nM
- GI50 (PC-3): 3.89 µM
- GI50 (NCI-H23): 1970 nM
- GI50 (HCT-15): 2.82 µM
- GI50 (ACHN): 4430 nM
- GI50 (NUGC-3): 1750 nM

Structure (SMILES): COc1ccccc1CN1CC=C(CCC(=O)NO)C1=O
- GI50 (MDA-MB-231): 6030 nM
- IC50 [1]: > 10000 nM
- GI50 (PC-3): 3.56 µM
- GI50 (NCI-H23): 6130 nM
- GI50 (HCT-15): > 10 µM
- GI50 (ACHN): > 10000 nM
- GI50 (NUGC-3): > 10000 nM

Structure (SMILES): O=C1CC2(CCCC2)CC(=O)N1CCCCN1CCN(c2ncccn2)CC1 [BUSPIRONE]
- remaining at 0.5 h, 1 µM [2]: 0.1%
- remaining at 0.5 h, 1 µM [3]: 108%
- remaining at 0.5 h, 1 µM [4]: 106%
